Measured values reported in patent publication US20120226186A1 (priority 2009, published 2012).

Tests used:
[1] = tested on: nociceptive flexor reflexes; settings: Willer, 1985; cited from earlier work
[2] = all 20 subjects, i.v. computer-controlled infusion

In the case of `CN1CC[C@]23c4c5ccc(O)c4O[C@H]2[C@@H](O)C=C[C@H]3[C@H]1C5` [morphine], the “reflex threshold of nociceptive flexor reflexes after application of the analgetic” value [1] is given as “changed in a concentration dependent manner”.

For `CC(C)c1cccc(C(C)C)c1O` [propofol, 2,6-diisopropylphenol], the “median effect compartment concentration at loss of reaction to repeated verbal commands” value ([2]; median) was 4 µg/mL and the “range of effect compartment concentration at loss of reaction to repeated verbal commands” value ([2]; range) was 2 to 5 µg/mL.
